Measured values published in US20240109853A1 (Shanghai Yao Yuan Biotechnology Co., Ltd., priority 2020, published 2024).

Columns and labels:
ALPK1 = ALPK1 (Homo sapiens (Human), UniProt Q96QP1); assay: ALPK1 in vitro kinase assay (HTRF of TIFA phosphorylation); format: biochemical
[1] = tested on: ALPK1-dependent NFκB reporter gene activation in HEK293 cells stably expressing an NF-kB reporter (G9 cells); assay: NFκB gene reporter alkaline phosphatase assay; format: cell-based; conditions: Homo sapiens, HEK293; read-out: NFkB assay IC50
Procedure, shortened: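 Compounds, serially diluted, were added to attached HEK293-derived G9 reporter cells for 30 min prior to stimulation with the fluoro-heptose ADP agonist. Secreted alkaline phosphatase was quantified colorimetrically using pNPP.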

Sequence of ALPK1 (Q96QP1 whole entry): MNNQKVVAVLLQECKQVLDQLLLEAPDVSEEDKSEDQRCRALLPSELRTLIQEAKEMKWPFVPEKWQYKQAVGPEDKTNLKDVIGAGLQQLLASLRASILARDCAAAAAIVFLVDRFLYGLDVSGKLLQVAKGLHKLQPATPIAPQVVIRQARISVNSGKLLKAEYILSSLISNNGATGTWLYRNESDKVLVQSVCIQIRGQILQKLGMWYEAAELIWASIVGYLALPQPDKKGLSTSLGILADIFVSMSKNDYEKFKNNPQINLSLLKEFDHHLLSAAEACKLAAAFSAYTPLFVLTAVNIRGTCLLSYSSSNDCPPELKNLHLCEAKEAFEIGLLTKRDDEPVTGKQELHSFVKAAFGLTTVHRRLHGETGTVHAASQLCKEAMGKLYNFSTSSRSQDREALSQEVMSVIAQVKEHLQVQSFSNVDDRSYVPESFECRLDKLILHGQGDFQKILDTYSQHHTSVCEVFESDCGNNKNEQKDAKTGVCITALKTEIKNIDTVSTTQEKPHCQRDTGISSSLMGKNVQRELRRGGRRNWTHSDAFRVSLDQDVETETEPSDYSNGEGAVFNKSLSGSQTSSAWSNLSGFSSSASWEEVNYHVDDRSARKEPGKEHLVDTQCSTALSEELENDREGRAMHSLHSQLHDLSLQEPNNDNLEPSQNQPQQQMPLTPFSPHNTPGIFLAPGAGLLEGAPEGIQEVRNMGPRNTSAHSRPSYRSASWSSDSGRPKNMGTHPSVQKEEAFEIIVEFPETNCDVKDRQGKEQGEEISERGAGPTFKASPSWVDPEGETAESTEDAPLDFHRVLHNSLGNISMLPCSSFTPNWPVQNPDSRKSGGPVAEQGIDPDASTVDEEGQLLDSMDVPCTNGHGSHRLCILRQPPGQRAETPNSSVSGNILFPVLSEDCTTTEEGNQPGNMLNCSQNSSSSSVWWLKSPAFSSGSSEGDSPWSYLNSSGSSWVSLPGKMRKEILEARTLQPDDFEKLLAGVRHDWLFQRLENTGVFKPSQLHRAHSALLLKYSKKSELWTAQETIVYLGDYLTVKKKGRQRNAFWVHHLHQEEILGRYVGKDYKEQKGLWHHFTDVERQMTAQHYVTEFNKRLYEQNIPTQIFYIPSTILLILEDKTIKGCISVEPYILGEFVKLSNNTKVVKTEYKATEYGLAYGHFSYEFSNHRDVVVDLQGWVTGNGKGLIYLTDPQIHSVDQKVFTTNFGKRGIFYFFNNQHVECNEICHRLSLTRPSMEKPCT

| Compound | IC50 (ALPK1) [nM] | IC50 [1] [nM] |
| --- | --- | --- |
| COc1ccc(C(C)(C)c2csc(NC(=O)NCc3ccc(NCCN)cc3)n2)cc1 [Example A183, 1-(4-((2-aminoethyl)amino)ben-yzl)-3-(4-(2-(4-methoxyphenyl)propan-2-yl)thiazol-2-yl)urea] | 52 | 2310 |
| C#C[C@](C)(c1ccc(Br)cc1)c1csc(NC(=O)NCC(O)CO)n1 (stereo in doubt) [Example A277, 1-(4-(2-(4-bromophenyl)but-3-yn-2-yl)thiazol-2-yl)-3-(2,3-dihydroxypropyl)urea] | 2670 | 1230 |
| C#CC(C)(c1ccc(Br)cc1)c1csc(NC(N)=O)n1 (stereo in doubt) [Example A163, (S)-1-(4-(2-(4-bromophenyl)but-3-yn-2-yl)thiazol-2-yl)urea] | 4 | 350 |
| C#CC(C)(c1ccc(Cl)cc1)c1csc(NC(=O)N2CCC(O)CC2)n1 (stereo not shown) [Example A307, N-(4-(2-(4-chlorophenyl)but-3-yn-2-yl)thiazol-2-yl)-4-hydroxypiperidine-1-carboxamide] | 2060 | 3150 |
| CC(NC(=O)Nc1nc(C(C)(C)c2ccc(Br)cc2)cs1)c1ccc(CN2CCN(C)CC2)cc1 (stereo not shown) [Example A118, 1-(4-(2-(4-bromophenyl)propan-2-yl)thiazol-2-yl)-3-(1-(4-((4-methylpiperazin-1-yl)methyl)phenyl)ethyl) urea] | 227 | 4380 |
| COc1ccc(C(C)(C)c2csc(NC(=O)N3CC(c4ccc(N5CCNCC5)cc4)C3)n2)cc1 [Example A233, N-(4-(2-(4-methoxyphenyl)propan-2-yl)thiazol-2-yl)-3-(4-(piperazin-1-yl)phenyl)azetidine-1-carboxamide] | 43 | 330 |
| CC(C)(c1ccc(F)cc1)c1csc(NC(=O)NCc2ccc(N3CCNCC3)cc2)n1 [Example A047, 1-(4-(2-(4-fluorophenyl)propan-2-yl)thiazol-2-yl)-3-(4-(piperazin-1-yl)benzyl)urea] | 167 | 2100 |
| COc1ccc(C(C)(C)c2csc(NC(=O)NCc3ccc(NC4CCNCC4)cc3)n2)cc1 [Example A041, 1-(4-(2-(4-methoxyphenyl)propan-2-yl)thiazol-2-yl)-3-(4-(piperidin-4-ylamino)benzyl)urea] | 23 | 1860 |
| COc1ccc(C(C)(C)c2csc(NC(=O)NCCCN3CCNC(C)C3)n2)cc1 (stereo not shown) [Example A228, 1-(4-(2-(4-methoxyphenyl)propan-2-yl)thiazol-2-yl)-3-(3-(3-methylpiperazin-1-yl)propyl)urea] | 100 | 3860 |
| COc1ccc(C(C)(C)c2csc(NC(=O)NC3CCCC(O)C3)n2)cc1 (stereo not shown) [Example A123, 1-(3-hydroxycyclohexyl)-3-(4-(2-(4-methoxyphenyl)propan-2-yl)thiazol-2-yl)urea] | 354 | 2400 |
| CC(C)(c1ccc(Br)cc1)c1csc(NC(=O)NCc2cnc(N3CCNCC3)nc2)n1 [Example A088, 1-(4-(2-(4-bromophenyl)propan-2-yl)thiazol-2-yl)-3-((2-(piperazin-1-yl)pyrimidin-5-yl)methyl)urea compound with methane (1:1)] | 13 | 1450 |
| COc1ccc(C(C)(C)c2csc(NC(=O)NC(C)c3cc(F)c(N4CCNCC4)cc3F)n2)cc1 (stereo not shown) [Example A002, 1-(1-(2,5-difluoro-4-(piperazin-1-yl)phenyl)ethyl)-3-(4-(2-(4-methoxyphenyl)propan-2-yl)thiazol-2-yl)urea] | 63 | 700 |
| CC(C)(c1ccc(Br)cc1)c1csc(NC(=O)NCCCN)n1 [Example A061, 1-(3-aminopropyl)-3-(4-(2-(4-bromophenyl)propan-2-yl)thiazol-2-yl)urea] | 195 | 1990 |
| [2H]c1sc(NC(=O)NCCO)nc1[C@](C)(C#C)c1ccc(Cl)cc1 [Example A300, 1-(4-(2-(4-chlorophenyl)but-3-yn-2-yl)thiazol-2-yl)-3-(2-hydroxyethyl)urea] | 341 | 3010 |
| C#C[C@@](C)(c1ccc(OC)cc1)c1csc(NC(N)=O)n1 [Example A173, (S)-1-(4-(2-(4-methoxyphenyl)but-3-yn-2-yl)thiazol-2-yl)urea] | 8 | 580 |
| C#CC(C)(c1ccc(OC)cc1)c1csc(NC(N)=O)n1 (stereo not shown) [Example A171, 1-(4-(2-(4-methoxyphenyl)but-3-yn-2-yl)thiazol-2-yl)urea] | 16 | 730 |
| C#C[C@@](C)(c1ccc(Br)cc1)c1csc(NC(=O)NCC(C)(C)O)n1 (stereo in doubt) [Example A306, 1-[4-[1-(4-bromophenyl)-1-methyl-prop-2-ynyl]thiazol-2-yl]-3-(2-hydroxy-2-methyl-propyl)urea] | 56 | 830 |
| C#CC(C)(c1ccc(Br)cc1)c1csc(NC(=O)N2CC(CO)C2)n1 (stereo not shown) [Example A165, N-(4-(2-(4-bromophenyl)but-3-yn-2-yl)thiazol-2-yl)-3-(hydroxymethyl)azetidine-1-carboxamide] | 138 | 730 |
| C#C[C@](C)(c1ccc(OC)cc1)c1csc(NC(=O)NCCO)n1 [Example A169, (R)-1-(2-hydroxyethyl)-3-(4-(2-(4-methoxyphenyl)but-3-yn-2-yl)thiazol-2-yl)urea] | 23 | 1670 |
| COc1ccc(C(C)(C)c2csc(NC(=O)NCCN3CCC(N)C3)n2)cc1 (stereo not shown) [Example A227, 1-(2-(3-aminopyrrolidin-1-yl)ethyl)-3-(4-(2-(4-methoxyphenyl)propan-2-yl)thiazol-2-yl)urea] | 138 | 3120 |
| CC(C)(c1ccc(Br)cc1)c1csc(NC(=O)NCc2cnc(N3CCC(O)C3)nc2)n1 (stereo not shown) [Example A079, 1-(4-(2-(4-bromophenyl)propan-2-yl)thiazol-2-yl)-3-((2-(3-hydroxypyrrolidin-1-yl)pyrimidin-5-yl)methyl)urea] | 170 | 1680 |
| CC(C)(c1ccc(Br)cc1)c1csc(NC(=O)NCc2ccc(CN3CCNCC3)cc2)n1 [Example A026, 1-(4-(2-(4-bromophenyl)propan-2-yl)thiazol-2-yl)-3-(4-(piperazin-1-ylmethyl)benzyl)urea] | 117 | 1250 |
| CC(C)(c1ccc(Br)cc1)c1csc(NC(=O)NCc2ccc(NCCN)cc2)n1 [Example A205, 1-(4-((2-aminoethyl)amino)ben-zyl)-3-(4-(2-(4-bromophenyl)propan-2-yl)thiazol-2-yl)urea] | 59 | 1480 |
| C#CC(C)(c1ccc(Br)cc1)c1csc(NC(=O)NCCO)n1 (stereo not shown) [Example A159, 1-(4-(2-(4-bromophenyl)but-3-yn-2-yl)thiazol-2-yl)-3-(4-hydroxyethyl)urea] | 48 | 490 |
| COc1ccc(C(C)(C)c2csc(NC(=O)NCc3cnc(N4CCNCC4)nc3)n2)cc1 [Example A086, 1-(4-(2-(4-methoxyphenyl)propan-2-yl)thiazol-2-yl)-3-((2-(piperazin-1-yl)pyrimidin-5-yl)methyl)urea] | 16 | 390 |
| CC(C)(c1ccc(Br)cc1)c1csc(NC(=O)NCc2cncnc2)n1 [Example A004, 1-(4-(2-(4-bromophenyl)propan-2-yl)thiazol-2-yl)-3-(pyrimidin-5-ylmethyl)urea] | 240 | 2030 |
